In data set [1] the test system is Plasmodium falciparum strain NF54. Nature of the data set: Growth inhibition of Plasmodium falciparum NF54 (chloroquine-sensitive) in vitro, [G-3H]-hypoxanthin incorporation. In kind it is cell-based. The settings on record: chloroquine-sensitive strain NF54, 72 h, read-out: IC50 for P. falciparum NF54. The text has this:
(§1) The ratio of the growth inhibition of a strain which is especially resistant to chloroquine and of a strain which is sensitive to chloroquine gives as the "resistance index" a measurement for the absence of a cross-resistance with chloroquine. Since, for all novel compounds the resistance index lies between 0.7 and 2.5, they inhibit the growth of sensitive as well as resistant strains of the malaria pathogen equally effectively. They are accordingly also suitable for the prophylaxis of a malaria disease and also for the treatment of a malaria disease even when chloroquine is ineffective. The good activity against malaria pathogens is also shown in animal experiments. The effective doses measured after oral and subcutaneous administration to mice infected with malaria pathogens are shown in Table 2 hereinafter.
(§2) Test method for the determination of the activity against Plasmodium falciparum in vitro
(§3) The preparations are tested on intraerythrocytary stages of Plasmodium falciparum from asynchronous cultures according to the method of Desjardin et al. (Desjardins, R. E. et al: Quantitative assessment of antimalarial activity in vitro by a semiautomated microdilution technique. Antimicrob. Agents Chemother. 16, 710-718, (1979)).
(§4) The culture medium consists of RPMI 1640 with the addition of 25 mM HEPES, 25 mM NaHCO3, 100 μg/ml neomycin and […] (A^+). Human-A^+ erythrocytes are used as the Plasmodium falciparum host cells. The parasites are maintained at 37° C. in an atmosphere of 3% O2, 4% CO2, 93% N2 and 95% relative humidity.
(§5) In order to determine the activity, the preparations are dissolved in DMSO, pre-diluted in the culture medium to a suitable starting concentration and subsequently titrated-out on to microtitre plates in the 2nd stage over 6-7 steps. After the addition of the parasite culture (0.7% parasitemia in 2.5% erythrocyte suspension) the test plates are incubated under the conditions given above for 72 h. The parasite growth in the different preparation concentrations is determined using [G-^3 H]-hypoxanthin incorporation compared to untreated control cultures on the same test plates. The 50% growth inhibition (IC50) is calculated according to logit regression analysis from the resulting dosage-activity curve.
(§6) The preparations are tested on at least one chloroquine-resistant and one chloroquine-sensitive Plasmodium falciparum strain. Additional sensitive and resistant strains are included for further characterization.

Another data set concerns Plasmodium falciparum K1. As to the kind of experiment: Growth inhibition of Plasmodium falciparum K1 (chloroquine-resistant) in vitro, [G-3H]-hypoxanthin incorporation. Type of data set: cell-based, Plasmodium falciparum (strain K1). The settings on record: for IC50: Plasmodium falciparum, K1, 72 h, read-out: IC50 for P. falciparum K1; for Resistance index: ratio of the IC50 for K1 and the IC50 for NF54.
Text: as §1, §2, §3, §4, §5, §6

The next data set concerns Plasmodium berghei. As to the kind of experiment: animal or person. In kind it is in vivo, Plasmodium berghei (strain ANKA) in mice. As to conditions: for inhibition in vivo at 10 mg/kg: Plasmodium berghei, mice, blood smears 48 h after treatment. As for the experimental part: Test method for the determination of the activity against Plasmodium berghei in vivo
The preparations are tested on mice infected with malaria pathogens (Plasmodium berghei). Male albino mice (IBM:MORO(SPF), FUELLINSDORF) weighing about 25 g are used as the test animals. They are kept in climatized rooms at 21-22° C. in groups of 5 animals per cage. They receive ad libitum a diet feed with a low PABA content (NAFAG FUTTER " No. 9009 PAB-45, PABA content 45 mg/kg) and drinking water. On the first day of the test (D0) the test animals are infected with Plasmodium berghei (strain ANKA). For this there is used heparinized blood of a donor mouse with about 30% parasitemia, which is diluted with physiological saline such that it contains 10^8 parasitized erythrocytes per ml. 0.2 ml of this suspension is injected intravenously (i.v.) into the mice to be treated and into the control mice.
The substances to be tested are dissolved or suspended in distilled water or in a mixture of 7% Tween 80, 3% alcohol (96%) and water. Usually, 0.25 ml of this solution or suspension is administered once subcutaneously and perorally to groups of 5 test animals. Treatment is effected 24 hours after the infection. 10 control animals are treated in the same manner with solvent or suspension medium per test.
All substances are tested in a first test in a single dosage of 10 mg/kg. Only those substances which in this test (10 mg/kg) have shown a parasitaemia reduction of 90% are used for the titration. Suitable dilutions of the test substance can be used to obtain an accurate titration of the activity.
48 hours after the treatment (D+3) blood smears are prepared from all animals using blood from tail veins and are stained with giemsa. […] The difference in the average values of the infection rates of control group (100%) and treated groups is calculated and expressed as a percentage reduction (GI%). The ED50 or ED90 is determined mathematically by means of the JMP programme (nonlinear fit). The ED50 (ED90) in mg/kg is that dose which after single administration reduces the average erythrocyte infection rate by 50% (90%) in comparison to the control group.

The mark [2] stands for this setting: po, single peroral dose of 10 mg/kg, read-out: Growth inhibition in % after po administration (GI%, percentage reduction of the parasitemia).
Where [3] appears, read: sc, single subcutaneous dose of 10 mg/kg, read-out: Growth inhibition in % after sc administration (GI%, percentage reduction of the parasitemia).

Values after ≈ are worked out from the molar mass of the structure shown. Structures can show the parent of a compound that is named as a salt. Where two headings read alike, the source gives them in different places.

Broadly, the IC50 is the midpoint of a concentration-inhibition curve.

On to `CC(C)(CNc1ccnc2cc(Cl)ccc12)NCc1cccc(Cl)c1` [Example 4, N1-(7-Chloro-quinolin-4-yl)-N2-(3-chloro-benzyl)-2-methyl-propane-1,2-diamine], for which the IC50 came out at 0.0091 mg/L (≈ 0.0243 µM) in data set [1] and 0.0088 mg/L (≈ 0.0235 µM) with Plasmodium falciparum K1. In the data set on Plasmodium falciparum K1, the Resistance index worked out at 1.0. Also, the inhibition in vivo at 10 mg/kg stood at 68% in the data set with Plasmodium berghei (setting [2]) and 73% in the data set with Plasmodium berghei (setting [3]).

Regarding `Cl.Cl.Clc1ccc(CCN[C@H]2CC[C@H](Nc3ccnc4cc(Cl)ccc34)CC2)c(Cl)c1` [Example 91, trans-N1-(7-Chloro-quinolin-4-yl)-N4-[2-(2,4-dichloro-phenyl)-ethyl]-cyclohexane-1,4-diamine dihydrochloride], the 50% inhibitory concentration (IC50) in data set [1] stood at 0.0034 mg/L; in the data set on Plasmodium falciparum K1 it was 0.0109 mg/L. Further, in the data set on Plasmodium falciparum K1, the Resistance index is 3.2. Besides, the inhibition in vivo at 10 mg/kg in the data set on Plasmodium berghei (setting [2]) turned out to be 88%; in the data set with Plasmodium berghei (setting [3]), 86%.

On to `Cl.Cl.Clc1ccc(CN[C@H]2CCCC[C@@H]2Nc2ccnc3cc(Cl)ccc23)cc1` [Example 61, (1S,2S)-N1-(7-Chloro-quinolin-4-yl)-N2-(4-chloro-benzyl)-cyclohexane-1,2-diamine dihydrochloride], for which the results for the IC50 (in data set [1]; in the data set on Plasmodium falciparum K1) were 0.0127 mg/L and 0.0112 mg/L, respectively. The Resistance index in the data set on Plasmodium falciparum K1 came out at 0.9. Besides, the inhibition in vivo at 10 mg/kg in the data set with Plasmodium berghei (setting [2]) and in the data set with Plasmodium berghei (setting [3]) was 99.6% in each case.

As for `CC(C)(CNc1ccnc2cc(Cl)ccc12)NCc1ccccn1.Cl.Cl.Cl` [Example 56, N1-(7-Chloro-quinolin-4-yl)-N2-(pyridin-2-yl-methyl)-2-methyl-propane-1,2-diamine trihydrochloride], the values for the IC50 (in data set [1]; with Plasmodium falciparum K1) were 0.0313 mg/L and 0.0537 mg/L, respectively. The Resistance index in the data set with Plasmodium falciparum K1 is reported as 1.7. Also, the results for the inhibition in vivo at 10 mg/kg in the data set on Plasmodium berghei (setting [2]) and in the data set on Plasmodium berghei (setting [3]) were 98% and 97%, respectively.

On to `Cl.Cl.Clc1ccc2c(N[C@H]3CC[C@H](NCc4ccc(Cl)c(Cl)c4)CC3)ccnc2c1` [Example 102, trans N1-(7-Chloro-quinolin-4-yl)-N4-(3,4-dichloro-benzyl)-cyclohexane-1,4-diamine dihydrochloride], for which the IC50 in data set [1] amounted to 0.0021 mg/L; in the data set on Plasmodium falciparum K1, 0.0036 mg/L. Also, the Resistance index with Plasmodium falciparum K1 amounted to 1.7. Further, the inhibition in vivo at 10 mg/kg in the data set with Plasmodium berghei (setting [2]) was 72%; with Plasmodium berghei (setting [3]), 81%.

Consider `CN(C)c1ccc(CN[C@H]2CCCC[C@@H]2Nc2ccnc3cc(Cl)ccc23)cc1.Cl.Cl` [Example 66, (1S,2S)-N1-(7-Chloro-quinolin-4-yl)-N2-(4-dimethylamino-benzyl)-cyclohexane-1,2-diamine dihydrochloride], for which the 50% inhibitory concentration (IC50) in data set [1] turned out to be 0.0056 mg/L; with Plasmodium falciparum K1, 0.0105 mg/L. Also, the Resistance index with Plasmodium falciparum K1 is listed as 1.9. Besides, the inhibition in vivo at 10 mg/kg in the data set with Plasmodium berghei (setting [2]) is 99.9%; with Plasmodium berghei (setting [3]), 99.6%.

On to `Cl.Cl.Clc1ccc(CN[C@H]2CC[C@@H](Nc3ccnc4cc(Cl)ccc34)CC2)c(Cl)c1` [Example 73, cis-N1-(7-Chloro-quinolin-4-yl)-N4-(2,4-dichloro-benzyl)-cyclohexane-1,4-diamine dihydrochloride], for which the 50% inhibitory concentration (IC50) amounted to 0.015 mg/L in data set [1] and 0.019 mg/L in the data set with Plasmodium falciparum K1. Also, the Resistance index in the data set on Plasmodium falciparum K1 turned out to be 1.3. The values for the inhibition in vivo at 10 mg/kg with Plasmodium berghei (setting [2]) and in the data set with Plasmodium berghei (setting [3]) were 23% and 96%, respectively.

As for `Cl.Cl.Fc1cccc(F)c1CN[C@H]1CC[C@@H](Nc2ccnc3cc(Cl)ccc23)CC1` [Example 19, cis-N1-(7-Chloro-quinolin-4-yl)-N4-(2,6-difluoro-benzyl)-cyclohexane-1,4-diamine dihydrochloride], the IC50 in data set [1] came out at 0.0049 mg/L. For the same compound, in the data set on Plasmodium falciparum K1, the IC50 is 0.0143 mg/L and the Resistance index is on record as 2.9. In addition, in the data set with Plasmodium berghei (setting [2]), the inhibition in vivo at 10 mg/kg came to 21%. For the same compound, the “Growth inhibition after sc administration: entry "toxic"” value with Plasmodium berghei (mouse, in vivo, sc, 10 mg/kg) is on record as “toxic”.

Consider `CC(C)(CNc1ccnc2cc(Cl)ccc12)NCc1ccc(-c2ccccc2)cc1` [Example 51, N1-(7-Chloro-quinolin-4-yl)-N2-(bipenyl-4-yl-methyl)-2-methyl-propane-1,2-diamine dihydrochloride], for which the IC50 stood at 0.0123 mg/L in data set [1] and 0.0091 mg/L in the data set with Plasmodium falciparum K1. Besides, the Resistance index in the data set with Plasmodium falciparum K1 is on record as 0.7. Further, the inhibition in vivo at 10 mg/kg turned out to be 82% in the data set with Plasmodium berghei (setting [2]) and 99% with Plasmodium berghei (setting [3]).

In the case of `COc1cc(OC)c(CN[C@H]2CC[C@H](Nc3ccnc4cc(Cl)ccc34)CC2)c(OC)c1.Cl.Cl` [Example 108, trans N1-(7-Chloro-quinolin-4-yl)-N4-(2,4,6-trimethoxy-benzyl)-cyclohexane-1,4-diamine dihydrochloride], the half-inhibitory concentration (IC50) came out at 0.0046 mg/L in data set [1] and 0.0184 mg/L with Plasmodium falciparum K1. Also, the Resistance index in the data set on Plasmodium falciparum K1 is recorded as 4.0. For the same compound, the inhibition in vivo at 10 mg/kg in the data set on Plasmodium berghei (setting [2]) is 110%; in the data set with Plasmodium berghei (setting [3]) it was 100%.

Turning to `Cl.Cl.Clc1ccc2c(N[C@H]3CC[C@@H](NCc4c(Cl)ccc(Cl)c4Cl)CC3)ccnc2c1` [Example 17, cis-N1-(7-Chloro-quinolin-4-yl)-N4-(2,3,6-trichloro-benzyl)-cyclohexane-1,4-diamine dihydrochloride], the results for the 50% inhibitory concentration (IC50) (in data set [1]; in the data set with Plasmodium falciparum K1) were 0.0064 mg/L and 0.0174 mg/L, respectively. Moreover, the Resistance index in the data set with Plasmodium falciparum K1 turned out to be 2.8. In addition, the inhibition in vivo at 10 mg/kg with Plasmodium berghei (setting [2]) was 32%; with Plasmodium berghei (setting [3]) it was 87%.

With `COc1cc(N[C@H]2CC[C@H](Nc3ccnc4cc(Cl)ccc34)CC2)cc(OC)c1.Cl` [Example 90, trans-N1-(7-Chloro-quinolin-4-yl)-N4-(3,5-dimethoxy-phenyl)-cyclohexane-1,4-diamine hydrochloride], the figures for the half-maximal inhibitory concentration (IC50) (in data set [1]; in the data set on Plasmodium falciparum K1) were 0.0497 mg/L and 0.0988 mg/L, respectively. Besides, the Resistance index with Plasmodium falciparum K1 turned out to be 2.0. The inhibition in vivo at 10 mg/kg in the data set on Plasmodium berghei (setting [2]) is 45%; with Plasmodium berghei (setting [3]), 60%.

`Cl.Cl.Clc1cc(Cl)cc(CN[C@H]2CC[C@@H](Nc3ccnc4cc(Cl)ccc34)CC2)c1` [Example 75, cis-N1-(7-Chloro-quinolin-4-yl)-N4-(3,5-dichloro-benzyl)-cyclohexane-1,4-diamine dihydrochloride]: the half-inhibitory concentration (IC50) worked out at 0.025 mg/L in data set [1] and 0.018 mg/L with Plasmodium falciparum K1. Moreover, the Resistance index in the data set on Plasmodium falciparum K1 came out at 0.7. Also, the inhibition in vivo at 10 mg/kg with Plasmodium berghei (setting [2]) worked out at 99.8%; with Plasmodium berghei (setting [3]), 99.7%.

Take `COc1ccc(CN[C@H]2CC[C@H](Nc3ccnc4cc(Cl)ccc34)CC2)cc1.Cl.Cl` [Example 100, trans N1-(7-Chloro-quinolin-4-yl)-N4-(4-methoxy-benzyl)-cyclohexane-1,4-diamine dihydrochloride]: the IC50 in data set [1] turned out to be 0.0019 mg/L; in the data set on Plasmodium falciparum K1, 0.004 mg/L. In addition, in the data set on Plasmodium falciparum K1, the Resistance index turned out to be 2.1. Further, the inhibition in vivo at 10 mg/kg in the data set with Plasmodium berghei (setting [2]) is 14%; with Plasmodium berghei (setting [3]), 99%.

The values above are taken from patent publication US5948791A, “Quinoline derivatives for treating malaria” (Hoffmann-La Roche Inc., priority 1995, dated 1999).
